Experimental data published in patent US20170190671A1, “BIS(ARYL)CATECHOL DERIVATIVES AS HERBICIDES” (E I DU PONT DE NEMOURS AND COMPANY, priority 2014, published 2017).

Columns and labels:
Type in all cases: in vivo
[1] = system: rice (Oryza sativa); experiment: Test B flooded paddy; details: Oryza sativa, 336 h; 250 g ai/ha, Flood, 13 to 15 days, scale 0 (no effect) to 100 (complete control); read-out: Plant response rating, Rice
Procedure, shortened: (§1)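 Test compounds are applied straight into paddy water held 3 cm above the soil surface, with that flood maintained for the whole test. After 13 to 15 days in the greenhouse, each species is scored visually relative to controls.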

[2] = system: barnyardgrass (Echinochloa crus-galli); experiment: Test B flooded paddy; details: Echinochloa crus-galli, 336 h; 250 g ai/ha, Flood, 13 to 15 days, scale 0 (no effect) to 100 (complete control); read-out: Plant response rating, Barnyardgrass
Procedure, shortened: as §1

[3] = system: sedge, umbrella (small-flower umbrella sedge, Cyperus difformis); experiment: Test B flooded paddy; details: Cyperus difformis, 336 h; 250 g ai/ha, Flood, 13 to 15 days, scale 0 (no effect) to 100 (complete control); read-out: Plant response rating, Sedge, Umbrella
Procedure, shortened: as §1

[4] = system: ducksalad (Heteranthera limosa); experiment: Test B flooded paddy; details: Heteranthera limosa, 336 h; 250 g ai/ha, Flood, 13 to 15 days, scale 0 (no effect) to 100 (complete control); read-out: Plant response rating, Ducksalad
Procedure, shortened: as §1

[5] = system: ragweed (common ragweed, Ambrosia elatior); experiment: Test A preemergence; details: Ambrosia artemisiifolia, pre-emergence, 240 h, 0 to 100 scale (0 no effect, 100 complete control), read-out: Ragweed plant response rating; for pest or weed control at 31 g/ha: 31 g ai/ha; for pest or weed control at 125 g/ha: 125 g ai/ha
Procedure, shortened: (§2)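 Scoring: eye-based comparison with untreated controls, 0 for no effect through 100 for complete control, at about day 10. Treatments: directed soil spray preemergence; foliar spray postemergence on 2–10 cm plants at the one- to two-leaf stage. Medium: loam soil with sand.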

[6] = system: barnyardgrass (Echinochloa crus-galli); experiment: Test A preemergence; details: Echinochloa crus-galli, pre-emergence, 240 h; for pest or weed control at 31 g/ha: 31 g ai/ha; for pest or weed control at 125 g/ha: 125 g ai/ha
Procedure, shortened: as §2

[7] = system: kochia (Kochia scoparia); experiment: Test A preemergence; details: Bassia scoparia, pre-emergence, 240 h, 0 to 100 scale (0 no effect, 100 complete control), read-out: Kochia plant response rating; for pest or weed control at 31 g/ha: 31 g ai/ha; for pest or weed control at 125 g/ha: 125 g ai/ha
Procedure, shortened: as §2

[8] = system: pigweed (Amaranthus retroflexus); experiment: Test A preemergence; details: Amaranthus retroflexus, pre-emergence, 240 h, 0 to 100 scale (0 no effect, 100 complete control), read-out: Pigweed plant response rating; for pest or weed control at 31 g/ha: 31 g ai/ha; for pest or weed control at 125 g/ha: 125 g ai/ha
Procedure, shortened: as §2

[9] = system: giant foxtail (Setaria faberii); experiment: Test A preemergence; details: Setaria faberi, pre-emergence, 240 h, 0 to 100 scale (0 no effect, 100 complete control), read-out: Foxtail, Giant plant response rating; for pest or weed control at 31 g/ha: 31 g ai/ha; for pest or weed control at 125 g/ha: 125 g ai/ha
Procedure, shortened: as §2

[10] = system: Italian ryegrass (Lolium multiflorum); experiment: Test A preemergence; details: Lolium multiflorum, pre-emergence, 240 h, 0 to 100 scale (0 no effect, 100 complete control), read-out: Ryegrass, Italian plant response rating; for pest or weed control at 31 g/ha: 31 g ai/ha; for pest or weed control at 125 g/ha: 125 g ai/ha
Procedure, shortened: as §2

[11] = system: wheat (Triticum aestivum); experiment: Test A postemergence; details: Triticum aestivum, post-emergence, 240 h, 0 to 100 scale, read-out: Plant response rating, Wheat; for plant injury at 31 g/ha: 31 g ai/ha; for plant injury at 125 g/ha: 125 g ai/ha
Procedure, shortened: as §2

[12] = system: ragweed (common ragweed, Ambrosia elatior); experiment: Test A postemergence; details: Ambrosia artemisiifolia, post-emergence, 240 h, 0 to 100 scale, read-out: Plant response rating, Ragweed; for pest or weed control at 31 g/ha: 31 g ai/ha; for pest or weed control at 125 g/ha: 125 g ai/ha
Procedure, shortened: as §2

[13] = system: corn (Zea mays); experiment: Test A postemergence; details: Zea mays, post-emergence, 240 h, 0 to 100 scale; for Corn plant response rating (crop injury, 0 = no effect, 100 = complete kill) at 31 g/ha: 31 g ai/ha; for Corn plant response rating (crop injury, 0 = no effect, 100 = complete kill) at 125 g/ha: 125 g ai/ha
Procedure, shortened: as §2

[14] = system: barnyardgrass (Echinochloa crus-galli); experiment: Test A postemergence; details: Echinochloa crus-galli, post-emergence, 240 h, 0 to 100 scale, read-out: Plant response rating, Barnyardgrass; for pest or weed control at 31 g/ha: 31 g ai/ha; for pest or weed control at 125 g/ha: 125 g ai/ha
Procedure, shortened: as §2

[15] = system: blackgrass (Alopecurus myosuroides); experiment: Test A postemergence; details: Alopecurus myosuroides, post-emergence, 240 h, 0 to 100 scale, read-out: Plant response rating, Blackgrass; for pest or weed control at 31 g/ha: 31 g ai/ha; for pest or weed control at 125 g/ha: 125 g ai/ha
Procedure, shortened: as §2

[16] = system: kochia (Kochia scoparia); experiment: Test A postemergence; details: Bassia scoparia, post-emergence, 240 h, 0 to 100 scale, read-out: Plant response rating, Kochia; for pest or weed control at 31 g/ha: 31 g ai/ha; for pest or weed control at 125 g/ha: 125 g ai/ha
Procedure, shortened: as §2

[17] = system: pigweed (Amaranthus retroflexus); experiment: Test A postemergence; details: Amaranthus retroflexus, post-emergence, 240 h, 0 to 100 scale, read-out: Plant response rating, Pigweed; for pest or weed control at 31 g/ha: 31 g ai/ha; for pest or weed control at 125 g/ha: 125 g ai/ha
Procedure, shortened: as §2

[18] = system: giant foxtail (Setaria faberii); experiment: Test A postemergence; details: Setaria faberi, post-emergence, 240 h, 0 to 100 scale, read-out: Plant response rating, Foxtail, Giant; for pest or weed control at 31 g/ha: 31 g ai/ha; for pest or weed control at 125 g/ha: 125 g ai/ha
Procedure, shortened: as §2

[19] = system: Italian ryegrass (Lolium multiflorum); experiment: Test A postemergence; details: Lolium multiflorum, post-emergence, 240 h, 0 to 100 scale, read-out: Plant response rating, Ryegrass, Italian; for pest or weed control at 31 g/ha: 31 g ai/ha; for pest or weed control at 125 g/ha: 125 g ai/ha
Procedure, shortened: as §2

[20] = system: galium (catchweed bedstraw, Galium aparine); experiment: Test A postemergence; details: Galium, post-emergence, 240 h, 0 to 100 scale, read-out: Plant response rating, Galium; for pest or weed control at 31 g/ha: 31 g ai/ha; for pest or weed control at 125 g/ha: 125 g ai/ha
Procedure, shortened: as §2

[21] = 0 to 100 scale (0 no effect, 100 complete control), read-out: Barnyardgrass plant response rating

SMILES	plant injury at 250 g/ha [1]	pest or weed control at 250 g/ha [2]	pest or weed control at 250 g/ha [3]	pest or weed control at 250 g/ha [4]	pest or weed control at 31 g/ha [5]	pest or weed control at 125 g/ha [5]	pest or weed control at 31 g/ha [6, 21]	pest or weed control at 31 g/ha [7]	pest or weed control at 125 g/ha [7]	pest or weed control at 31 g/ha [8]	pest or weed control at 125 g/ha [8]	pest or weed control at 31 g/ha [9]	pest or weed control at 125 g/ha [9]	pest or weed control at 31 g/ha [10]	pest or weed control at 125 g/ha [10]	plant injury at 31 g/ha [11]	plant injury at 125 g/ha [11]	pest or weed control at 31 g/ha [12]	pest or weed control at 125 g/ha [12]	Corn plant response rating (crop injury, 0 = no effect, 100 = complete kill) at 31 g/ha [13]	further results
Fc1ccc(F)c(Oc2ncc(Br)cn2)c1Oc1ncc(Br)cn1 [Compound 31]	0%	0%	50%	50%	0%	20%	0%	30%	90%	70%	100%	40%	90%	0%	0%	20%	30%	0%	0%	20%	pest or weed control at 125 g/ha ([6]; 0 to 100 scale, read-out: Plant response rating, Barnyardgrass): 70%; Corn plant response rating (crop injury, 0 = no effect, 100 = complete kill) at 125 g/ha [13]: 30%; pest or weed control at 31 g/ha [14]: 10%; pest or weed control at 125 g/ha [14]: 20%; pest or weed control at 31 g/ha [15]: 20%; pest or weed control at 125 g/ha [15]: 30%; pest or weed control at 31 g/ha [16]: 20%; pest or weed control at 125 g/ha [16]: 80%; pest or weed control at 31 g/ha [17]: 90%; pest or weed control at 125 g/ha [17]: 90%; pest or weed control at 31 g/ha [18]: 20%; pest or weed control at 125 g/ha [18]: 40%; pest or weed control at 31 g/ha [19]: 10%; pest or weed control at 125 g/ha [19]: 30%; pest or weed control at 31 g/ha [20]: 70%; pest or weed control at 125 g/ha [20]: 100%
N#Cc1cccc(Oc2ncc(Cl)cn2)c1Oc1ccc(Cl)cc1 [Compound 36]	0%	0%	95%	65%	0%	0%	0%	10%	50%	60%	100%	70%	90%	0%	20%	0%	10%	10%	20%	20%	pest or weed control at 125 g/ha [6, 21]: 40%; Corn plant response rating (crop injury, 0 = no effect, 100 = complete kill) at 125 g/ha [13]: 20%; pest or weed control at 31 g/ha [14]: 10%; pest or weed control at 125 g/ha [14]: 30%; pest or weed control at 31 g/ha [15]: 20%; pest or weed control at 125 g/ha [15]: 40%; pest or weed control at 31 g/ha [16]: 80%; pest or weed control at 125 g/ha [16]: 100%; pest or weed control at 31 g/ha [17]: 90%; pest or weed control at 125 g/ha [17]: 100%; pest or weed control at 31 g/ha [18]: 20%; pest or weed control at 125 g/ha [18]: 50%; pest or weed control at 31 g/ha [19]: 0%; pest or weed control at 125 g/ha [19]: 10%; pest or weed control at 31 g/ha [20]: 90%; pest or weed control at 125 g/ha [20]: 100%
